The text below walks through data of US6028197A, “Dibenzo[a,g]quinolizinium derivatives and the salts thereof” (Hanwha Corporation, priority 1998, dated 2000).

SMILES strings stand for the structures.

The target of data set [1] is T1, sterol 14-reductase (Rattus norvegicus, UniProt A0ACM8Q6X4).
T1 construct: microsome which was used as an enzyme source of sterol 14-reductase; from tissue; host or cells: liver microsomes of male Sprague-Dawley rats fed lovastatin and cholestyramine
T1 sequence (A0ACM8Q6X4 1-418): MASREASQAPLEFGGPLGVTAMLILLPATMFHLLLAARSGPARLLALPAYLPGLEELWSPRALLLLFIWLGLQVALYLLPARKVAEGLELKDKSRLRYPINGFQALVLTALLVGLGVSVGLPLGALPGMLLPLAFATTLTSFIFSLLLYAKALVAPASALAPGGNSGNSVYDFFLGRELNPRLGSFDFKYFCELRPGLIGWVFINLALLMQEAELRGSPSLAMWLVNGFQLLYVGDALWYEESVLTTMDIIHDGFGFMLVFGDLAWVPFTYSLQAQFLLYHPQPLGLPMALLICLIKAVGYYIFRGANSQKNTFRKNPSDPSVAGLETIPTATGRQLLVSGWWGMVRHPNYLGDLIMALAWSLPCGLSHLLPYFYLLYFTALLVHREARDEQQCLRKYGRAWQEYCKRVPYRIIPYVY
Briefly: Inhibition of sterol 14-reductase in rat liver microsomes. The class given is biochemical. The settings on record: read-out: Enzyme Activity (relative in vitro activity for sterol 14-reductase, IC50 class). Background: Liver microsomes are vesicles of endoplasmic reticulum, rich in cytochrome P450 enzymes.
Description: 20 Male Sprague-Dawley rats weighing from 150 to 250 g have been fed for 7 days with a diet containing 0.1% (w/w) Lovastatin and 5% (w/w) Cholestyramine. The animals were fasted for 12 hours before excising liver tissues and then sacrificed by decapitation at midnight. An aqueous solution containing 0.25M of sucrose was injected into the hepatic portal vein to remove all the blood within the liver, and then, the liver was excised. The liver was homogenated with two volumes of buffer solution A (0.1M potassium phosphate, 1 mM reduced glutathione, 0.5 mM EDTA, 20% (v/v) glycerol, pH 7.4) by repeating pestles over 10 times and then, centrifuged with 900×g for 5 minutes to give a supernatant. The supernatant was centrifuged with 12,000×g for 20 minutes. The supernatant obtained was ultracentrifuged with 105,000×g for 90 minutes to give a microsome which was used as an enzyme source of sterol 14-reductase. Assay for sterol 14-reductase was carried out as follows:
60 mmol of 4,4-dimethyl-5α-cholesta-7,14-dien-3β-ol and 5,6-dihydrodibenzo-[a,g]quinolizinium salts (compound no. 2) dissolved in DMSO were added to an assay mixture (total volume 1.0 ml) containing 2 mg of the microsomal protein, 2 mM of NADPH and 25 mg of glucose plus 20 units of glucose oxidase with preincubations under nitrogen at 37° C. for 4 min. unless otherwise specified to establish anaerobic condition. Buffer A (0.1M potassium phosphate buffer, pH 7.4, including 1 mM reduced glutathione, 0.5 mM EDTA, and 20% (v/v) glycerol) used for incubation had been equilibrated with nitrogen, and nitrogen was exchanged for air in all sealed reaction flasks prior to the start of incubations. Incubation of the complete mixture was carried out anaerobically in sealed flasks for 10 min at 37° C. unless otherwise indicated. Incubations were terminated by the addition of 1 ml of ethanolic KOH followed by heating under reflux for 10 min. Sterols were extracted four times with 4 ml of petroleum ether, and the solvent was evaporated to dryness under a nitrogen stream. The resulting residue was dissolved in 200-500 μl of n-hexane for quantification by GLC at high sensitive attenuation. The activity of sterol 14-reductase was determined with the amount of the substrate wherein the double bonds of 14-carbon were reduced (for the amount reduced by 1 mg of the microsome protein for 1 minute).

The test system of data set [2] is HepG2 cells. In words: Cholesterol biosynthesis in cultured human liver cell line ([1,2-14C]acetate incorporation). The format is cell-based. The note with it: compared with AY9944 (comparative drug). On the procedure:
Cultured human liver HepG2 cell line was grown on RPMI (Rosewell park Memorial Institute) 1640 culture medium containing 10% PBS until 60% of monolayer are formed in a 60 mm culture dish. After replacing the medium with 3 ml of a fresh culture medium containing 10% (v/v) LPDS (Fetal calf lipoprotein-deficient serum), the cells were further grown for 48 hours until 90% of cultivation degree appear The culture medium was removed and the cell was then washed with PBS. 2 ml of culture medium containing compound no. 2 (final concentration 100 μM) and AY-9944 (final concentration 1 μM) were added thereto. Then, the medium was cultivated at 37° C. for 1 hour under the condition of 95% air/5% carbonic acid gas. AY-9944 which is an inhibitor for sterol 7-reductase was used as a control drug for assuring the present experimental procedure on the inhibition of cholesterol biosynthesis. Thereafter, 3 μCi of [1,2-^14 C]acetate (72 mCi/mmol) were added thereto. The cultivation was continued for 2 hours so that the isotope is introduced into the cell and used as a precursor for sterol to be synthesized. Then, the culture medium was completely removed and washed with PBS twice and the cells were collected by scratching. 10 μg of cholesterol, 10 μg of lanosterol and [^3 H]cholesterol (30,000 dpm) were added thereto, and saponification reaction was carried out at 70° C. for an hour by adding 7.5% of methanolic KOH solution. Unsaponified sterol was removed by extracting them three times with 3 ml of petroleum ether and dried with nitrogen purging. The dried samples were redissolved in 200 μl of chloroform. An aliquot of the samples was loaded onto Silicagel 60F thin layer plate and then separated using ethyl acetate/hexane 25/75 (v/v) as the developing solvent. The thin layer film was developed by exposure to Amersham Hyperfilm at -70° C. for 7 days. Cholesterol band were confirmed by comparing the band appeared in the film and that appeared in the iodine-stained thin layer. After scratching the cholesterol band, it was quantified by a liquid scintillation counter.

In data set [3] the test system is Syrian Golden Hamster. In words: In vivo effect on plasma lipids in Syrian Golden Hamster. On the procedure: In order to investigate the effect of the compound of formula (I) of the invention, the compound was orally administered into male Syrian Golden Hamsters having weights of 90~110 g for two weeks and blood was then taken from each animal. Plasma lipids, i.e., total cholesterol, LDL-cholesterol,HDL-cholesterol and triglycerides were analyzed using an automatic analyzer (Automatic analyzer model Hitachi 7150).
Male Syrian Golden Hamsters weighing 90~110 g distributed from Samyuk Animal Laboratory, Seoul, Korea were bred under the following conditions: they were maintained under reverse light cycle (light cycle: from 6 P.M to 6 A.M; dark cycle: from 6 A.M. to 6 P.M.). The food and water were supplied at 10 A.M. The commercially available standard rodent chows were used. The hamsters were divided into 6 or 7 animals per group. The animals were fasted for 12 hours before administrating the drug. Then, 5,6-dihydrodibenzo[a,g]quinolizinium salts (compound no. 2) dissolved in a 0.25% methyl cellulose solution was administered orally for 14 days at the indicated time per a day. After fasting animals for 24 hours from the last administration, blood was extracted using a cardiac puncture and plasma was then isolated. Plasma lipids, i.e., total cholesterol, LDL-cholesterol, HDL-cholesterol and triglyceride values were analyzed using Automatic Analyzer (Hitachi 7150).

Data set [4] is described as follows: Acute oral toxicity in SD rats. The format is in vivo. The settings on record: rat, in vivo, po, rats. On the procedure:
(§1) Meanwhile, the toxicity of the compounds of the present invention was investigated as follows: i.e., the compounds were suspended into propylene glycol and then orally administered into each of 5 male and female SD rats at the age of 5-weeks that were fasted for 12 hours. Under the usual breeding conditions, general symptoms, weight change and lethal case of the above rats were monitored for two weeks. At the dose over 2,000 mg/kg of the compound nos. 2, 3, 9 and 68, general symptoms and the body weight change of the animals were normal and the lethal case was not observed.

Data set [5] concerns SD rats. Briefly: Acute oral toxicity in SD rats. The class given is in vivo. Here is the method:
as §1

Setting [6] is: normal diet, 0.3 mg/kg/day oral, 14 days, plasma.

Usually IC50 stands for the midpoint of a concentration-inhibition curve. The term LD50 denotes the dose at which mortality reaches 50%. Read a low LD50 as a more toxic substance.

Consider `CCc1c2[n+](cc3c(OCc4c(F)c(F)c(F)c(F)c4F)c(OC)ccc13)CCc1cc(OC)c(OC)cc1-2` [Compound No. 3, 5,6-dihydro-2,3-dimethoxybenzo[a]-13-ethyl-10-methoxy-9-(2,3,4,5,6-pentafluoro)benyloxybenzo[g]quinolizinium chloride], for which, in data set [1], the IC50 is less than 1000 nM. Further, in data set [2], the “inhibition of cholesterol biosynthesis in human HepG2 cell line” value was “markedly inhibited”. Moreover, in data set [3] (0.3 mg/kg/day oral, 14 days), the “HDL cholesterol, change versus normal diet control” value is “+5.4%”; the “LDL cholesterol, change versus normal diet control” value was -49.2%; the “Total cholesterol, change versus normal diet control” value is -23.5%; the “Triglyceride, change versus normal diet control” value is listed as -38.0%. Also, the “total cholesterol, LDL-cholesterol, and triglyceride levels” value in data set [3] (compared with lovastatin) is “markedly decreased”. In data set [3] (setting [6]), this molecule returned an HDL cholesterol of 63.0 ± 3.0 mg/dL, an LDL cholesterol of 18.8 ± 2 mg/dL, a Total cholesterol of 89.0 ± 7 mg/dL and a Triglyceride of 49.2 ± 6 mg/dL. The molecule also registered a median lethal dose (LD50) at 336 h in data set [4] (female) greater than 2000 mg/kg. The LD50 at 336 h in data set [4] (male) was greater than 2000 mg/kg. Moreover, the “general symptoms and the body weight change” value in data set [5] (oral dose over 2,000 mg/kg, monitored for two weeks) was “normal”. The lethal case entry in data set [5] (rat, in vivo) is reported as “not observed”.
